This note sets out measurements from the supplement of paper PMC10307832.

Holding throughout (assay): relative viability (nuclei count vs DMSO), 5 days (fraction); higher = more cells survive
Compound in the assay “CX-5461 + Bortezomib”: Cc1cnc(CNC(=O)c2c(=O)c3ccc(N4CCCN(C)CC4)nc3n3c2sc2ccccc23)cn1 [CX-5461] + CC(C)C[C@H](NC(=O)[C@H](Cc1ccccc1)NC(=O)c1cnccn1)B(O)O [Bortezomib] (partner 0.002 µM)
A digest of the protocol:
(§1)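 Relative viability divides the nuclei count in treated wells by that in vehicle wells. Lung cancer cell lines were seeded in 1536-well plates, dosed by pin tool the next day, and fixed and stained after 5 days in one step with final 0.05% Triton X-100, 1% formaldehyde and 1 ug/ml Hoechst. Dosing was a single drug or a fixed anchor-drug dose plus five library-drug doses (not always all listed) in √10 steps, and values are medians of duplicate plates imaged at 4×.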

Compound in the assay “IMD-0354 + Phenformin”: O=C(Nc1cc(C(F)(F)F)cc(C(F)(F)F)c1)c1cc(Cl)ccc1O [IMD-0354] + N=C(N)NC(=N)NCCc1ccccc1 [Phenformin] (partner 250 µM)
Summed up: as §1

Compound in the assay “CX-5461 + Navitoclax”: Cc1cnc(CNC(=O)c2c(=O)c3ccc(N4CCCN(C)CC4)nc3n3c2sc2ccccc23)cn1 [CX-5461] + CC1(C)CCC(c2ccc(Cl)cc2)=C(CN2CCN(c3ccc(C(=O)NS(=O)(=O)c4ccc(N[C@H](CCN5CCOCC5)CSc5ccccc5)c(S(=O)(=O)C(F)(F)F)c4)cc3)CC2)C1 [Navitoclax] (partner 0.5 µM)
Summed up:
as §1

Compound in the assay “CX-5461 + Pemetrexed”: Cc1cnc(CNC(=O)c2c(=O)c3ccc(N4CCCN(C)CC4)nc3n3c2sc2ccccc23)cn1 [CX-5461] + Nc1nc2[nH]cc(CCc3ccc(C(=O)N[C@@H](CCC(=O)O)C(=O)O)cc3)c2c(=O)[nH]1 [Pemetrexed] (partner 0.2 µM)
Summed up: as §1

Take NCI-H2085: the relative viability with CX-5461 + Bortezomib (first compound 0.01 µM) was 1.04; with CX-5461 + Bortezomib (first compound 0.03162 µM) it was 0.999; with CX-5461 + Bortezomib (first compound 0.1 µM) it was 0.871; with CX-5461 + Bortezomib (first compound 0.3162 µM), 1.01; with CX-5461 + Bortezomib (first compound 1 µM), 0.677; in the assay with IMD-0354 + Phenformin (first compound 0.04 µM), 0.641. The relative viability with IMD-0354 + Phenformin (first compound 0.1265 µM) was determined as 0.69; with IMD-0354 + Phenformin (first compound 0.4 µM), 0.515; with IMD-0354 + Phenformin (first compound 1.265 µM) it was 0.322; with IMD-0354 + Phenformin (first compound 4 µM), 0.232; with CX-5461 + Navitoclax (first compound 0.01 µM) it was 1.21; with CX-5461 + Navitoclax (first compound 0.03162 µM), 1.16. Further, the relative viability in the assay with CX-5461 + Navitoclax (first compound 0.1 µM) was 1.02; with CX-5461 + Navitoclax (first compound 0.3162 µM) it was 1.16; with CX-5461 + Navitoclax (first compound 1 µM), 1.11; in the assay with CX-5461 + Pemetrexed (first compound 0.01 µM), 1.03; with CX-5461 + Pemetrexed (first compound 0.03162 µM), 0.907; in the assay with CX-5461 + Pemetrexed (first compound 0.1 µM), 0.88. Moreover, the relative viability in the assay with CX-5461 + Pemetrexed (first compound 0.3162 µM) came out at 0.989; with CX-5461 + Pemetrexed (first compound 1 µM) it was 0.799.

Turning to NCI-H2087, the relative viability with CX-5461 + Bortezomib (first compound 0.01 µM) turned out to be 0.812; with CX-5461 + Bortezomib (first compound 0.03162 µM), 0.884; with CX-5461 + Bortezomib (first compound 0.1 µM) it was 0.781; with CX-5461 + Bortezomib (first compound 0.3162 µM), 1.07; in the assay with CX-5461 + Bortezomib (first compound 1 µM), 0.525; with IMD-0354 + Phenformin (first compound 0.04 µM), 0.481. The relative viability with IMD-0354 + Phenformin (first compound 0.1265 µM) amounted to 0.258; with IMD-0354 + Phenformin (first compound 0.4 µM) it was 0.206; with IMD-0354 + Phenformin (first compound 1.265 µM), 0.119; with IMD-0354 + Phenformin (first compound 4 µM), 0.128; in the assay with CX-5461 + Navitoclax (first compound 0.01 µM) it was 1.24; with CX-5461 + Navitoclax (first compound 0.03162 µM), 1.11. For the same cell line, the relative viability with CX-5461 + Navitoclax (first compound 0.1 µM) came out at 0.997; in the assay with CX-5461 + Navitoclax (first compound 0.3162 µM) it was 1.12; with CX-5461 + Navitoclax (first compound 1 µM), 0.797; with CX-5461 + Pemetrexed (first compound 0.01 µM) it was 0.689; in the assay with CX-5461 + Pemetrexed (first compound 0.03162 µM), 0.657; with CX-5461 + Pemetrexed (first compound 0.1 µM) it was 0.684. In addition, the relative viability was found to be 0.712 with CX-5461 + Pemetrexed (first compound 0.3162 µM) and 0.654 with CX-5461 + Pemetrexed (first compound 1 µM).

On to NCI-H2126, for which the relative viability in the assay with CX-5461 + Bortezomib (first compound 0.01 µM) amounted to 1.12; in the assay with CX-5461 + Bortezomib (first compound 0.03162 µM) it was 1.15; in the assay with CX-5461 + Bortezomib (first compound 0.1 µM), 1.15; with CX-5461 + Bortezomib (first compound 0.3162 µM), 1.09; with CX-5461 + Bortezomib (first compound 1 µM) it was 1.06; in the assay with IMD-0354 + Phenformin (first compound 0.04 µM) it was 0.561. Besides, the relative viability came out at 0.47 with IMD-0354 + Phenformin (first compound 0.1265 µM); 0.424 with IMD-0354 + Phenformin (first compound 0.4 µM); 0.309 in the assay with IMD-0354 + Phenformin (first compound 1.265 µM); 0.222 with IMD-0354 + Phenformin (first compound 4 µM); 0.873 with CX-5461 + Navitoclax (first compound 0.01 µM); 0.863 in the assay with CX-5461 + Navitoclax (first compound 0.03162 µM). For the same cell line, the relative viability in the assay with CX-5461 + Navitoclax (first compound 0.1 µM) turned out to be 0.896; with CX-5461 + Navitoclax (first compound 0.3162 µM) it was 0.815; in the assay with CX-5461 + Navitoclax (first compound 1 µM), 0.804; with CX-5461 + Pemetrexed (first compound 0.01 µM), 0.697; with CX-5461 + Pemetrexed (first compound 0.03162 µM), 0.713; with CX-5461 + Pemetrexed (first compound 0.1 µM), 0.687. Further, the relative viability with CX-5461 + Pemetrexed (first compound 0.3162 µM) was 0.672; with CX-5461 + Pemetrexed (first compound 1 µM), 0.634.

As to NCI-H2228, the relative viability with CX-5461 + Bortezomib (first compound 0.01 µM) amounted to 0.934; in the assay with CX-5461 + Bortezomib (first compound 0.03162 µM), 0.797; with CX-5461 + Bortezomib (first compound 0.1 µM) it was 0.455; with CX-5461 + Bortezomib (first compound 0.3162 µM) it was 0.819; with CX-5461 + Bortezomib (first compound 1 µM) it was 0.126; in the assay with IMD-0354 + Phenformin (first compound 0.04 µM), 0.372. The relative viability was determined as 0.224 with IMD-0354 + Phenformin (first compound 0.1265 µM); 0.233 with IMD-0354 + Phenformin (first compound 0.4 µM); 0.084 in the assay with IMD-0354 + Phenformin (first compound 1.265 µM); 0.165 in the assay with IMD-0354 + Phenformin (first compound 4 µM); 0.822 with CX-5461 + Navitoclax (first compound 0.01 µM); 0.572 in the assay with CX-5461 + Navitoclax (first compound 0.03162 µM). In addition, the relative viability in the assay with CX-5461 + Navitoclax (first compound 0.1 µM) worked out at 0.513; with CX-5461 + Navitoclax (first compound 0.3162 µM), 0.552; with CX-5461 + Navitoclax (first compound 1 µM), 0.0937; in the assay with CX-5461 + Pemetrexed (first compound 0.01 µM) it was 0.355; with CX-5461 + Pemetrexed (first compound 0.03162 µM) it was 0.369; with CX-5461 + Pemetrexed (first compound 0.1 µM), 0.312. Moreover, the relative viability was determined as 0.305 with CX-5461 + Pemetrexed (first compound 0.3162 µM) and 0.182 in the assay with CX-5461 + Pemetrexed (first compound 1 µM).
